Literature values, collected in patent publication US8426470B2, “Method for alleviating signs and symptoms of spasticity” (Sun Pharmaceutical Industries Ltd., priority 2006, dated 2013).

How the values were obtained:
spasticity = details: in vivo

Plasma elimination half-life (in vivo): approximately 3.5 hours
concentrations in the cerebrospinal fluid (CSF) relative to those in the plasma (in vivo): about 12%
elimination half-life from the CSF (in vivo): 4 to 5 h
fraction metabolized in the liver (remainder excreted mainly by the kidneys in unchanged form): 15%
SMILES: NCC(CC(=O)O)c1ccc(Cl)cc1 (centres unmarked) [Baclofen, 4-amino-3-(4-chlorophenyl)-butanoic acid]
lowest concentration in plasma at which a significant reduction in spasticity was observed (spasticity): 90 ng/mL
